Source: patent publication US20160290995A1, “METHODS OF SELECTING AKT AGONISTS OR ANTAGONISTS” (OREGON HEALTH & SCIENCE UNIVERSITY, priority 2015, published 2016)

Experiments:
IGF-I receptor = IGF-I receptor (Homo sapiens, UniProt P08069); conditions: cited from earlier work
Akt [1] = test: FOXO1-clover reporter live-cell imaging (relative nuclear intensity) in C3H10T1/2 fibroblasts; assay type: cell-based, mouse; conditions: for change of nuclear levels of the reporter on growth factor addition (result in words): different concentrations; for change of nuclear levels of the reporter on growth factor addition (result in words) / time to half-maximal translocation/accumulation of reporter in the cytoplasm after onset of incubation / time to maximal translocation values: cells pre-incubated in SFM, population level; for time to half-maximal translocation/accumulation of reporter in the cytoplasm after onset of incubation / time to maximal translocation values: different growth factor concentrations
Method: (§1) Cells were imaged every 2-min for 60 min. At the end of the incubation period whole cell lysates were collected.
10T1/2 cells and C2 myoblasts were incubated in serum-free medium for 90 min. R3-IGF-I was added in supplemented FluoroBrite [0 to 500 pM], and cells were imaged every 2-min for 60 min. […]
(§2) Live cell imaging was performed using an EVOS FL Auto microscope with a stage top incubator that was maintained at 37° C. and 95% humidified air with 5% CO2. Images were collected at 100× magnification at different intervals, using a 10× Fluorite objective (numerical aperture: 0.3), and a GFP light cube (excitation peak, 472/22 nm; emission peak, 510/42 nm). Images were analyzed with the NIH ImageJ plug-in Fiji (NIH, Bethesda, Md.), after using the Polynomial Fit plug-in to subtract background fluorescence, the Stack Reg (rigid registration) plug-in to register images, and the Gaussian Blur plug-in (at 2-pixels) to average fluorescence across pixels. Individual cells were manually tracked using the mTrackJ plug-in (Meijering E et al, Methods Enzymol 504, 183-200 (2012); incorporated by reference herein) by selecting a single point in the nucleus. Cells that died, divided, or migrated out of frame were excluded from analysis. In experiments performed in 6-well dishes, two locations on opposite sides of the well were imaged, while for studies using 24-well plates, one central location was imaged. In each location, at least 25 cells were tracked.

Akt [2] = test: FoxO1-clover reporter live-cell imaging in HeLa cells; assay type: cell-based; conditions: IGF-I 500 pM, insulin 1400 pM, EGF 4.2 nM, PDGF-BB 4.1 nM, PDGF-AA 3.5 nM; 90 min
Method: HeLa cells (ATCC #CCL2) were incubated in DMEM supplemented with 10% FBS. Cells were transduced at 50% of confluent density with concentrated FoxO1-clover virus in the presence of polybrene (6 μg/ml), as described (Gross S M and Rotwein P, Skelet Muscle 3, doi10.1186/2044-5040-3-10 (2013); incorporated by reference herein), and sorted by fluorescence intensity with a Becton-Dickinson Influx cell sorter. Reporter expression was stable for at least 10 passages in each sorted cell population. C3H10T1/2 mouse embryonic fibroblasts (ATC #CCL226) stably expressing FoxO1-clover (Gross and Rotwein, 2015), were maintained under selection with puromycin (2 μg/ml).
as §2, with “tracked. The relative nuclear intensity of the FoxO1-clover reporter protein was calculated in each cell by normalizing the values measured at time 0 to 100%. This corresponded to incubation in serum-free medium (SFM). In graphs in which single cell responses were plotted with C3H10T1/2 cells, we applied a time-weighted smoothing filter to each data point. This consisted of averaging contributions from the two prior and two succeeding times (adding 50% of the prior or succeeding time point, and 25% of the next succeeding or earlier time point to 100% of the value of the time point in question, and then dividing by 2.5).” for “tracked.”
Short-term responses to individual growth factors: C3H10T1/2 cells were incubated in serum-free Fluorobrite medium plus 2 mM L-glutamine and 0.1% bovine serum albumin for 90 min. Different concentrations of growth factors were added and images were collected every 2 min for 90 min. Growth factors included insulin [0 to 1400 pM], EGF [0 to 4.2 nM], PDGF-AA [0 to 1400 pM], or PDGF-BB [0 to 104 pM]. HeLa cells were incubated in serum-free Fluorobrite medium for 120 min and then incubated with insulin [1400 pM], EGF [4.2 nM], PDGF-AA [3.5 nM], PDGF-BB [4.1 nM], or R3-486 IGF-I [500 pM], with images collected every 2 min.

Akt phosphorylation [3] = test: Immunoblotting of Akt and PRAS40 phosphorylation in 10T1/2 whole cell lysates; assay type: cell-based, mouse
Method: as §1
(§3) Whole cell protein lysates were prepared as described (Mukherjee A and Rotwein P, Mol Endorcrinol 22, 1238-1250 (2008); incorporated by reference herein). Protein aliquots (15 μg/lane) were resolved by SDS-PAGE (12% separating gel), followed by transfer to Immobilon-FL membranes, and blocking with 50% AquaBlock solution. Membranes were incubated sequentially with primary and secondary antibodies, as described (Mukherjee and Rotwein, 2008 supra). Primary antibodies were incubated for 12-16 hr at a 1:1000 dilution, except for α-tubulin (1:10,000), and secondary antibodies for 90 min at 1:5000. Images were captured using the LiCoR Odyssey and version 3.0 analysis software (Lincoln, Nebr.).
C3H10T1/2 cells stably expressing FoxO1-clover were incubated in SFM with Fluorobrite imaging media for 90 min followed by addition of insulin [1400 pM], EGF [4.2 nM], PDGF-AA [1400 pM], or PDGF BB [104 pM]. Whole protein lysates were collected after 0, 5, 15, 30, 60, and 90 min of growth factor exposure by washing cells twice with cold PBS and addition of RIPA buffer containing protease and phosphatase inhibitors (Mukherjee A and Rotwein P, Mol Endocrinol 22, 1238-1250 (2008); incorporated by reference herein). Protein aliquots (12.5 μg/lane) were resolved by SDS PAGE (10% separating gels), and transferred onto Immobilon-FL membranes. Membranes were incubated in 50% AquaBlock for 60 min, followed by addition of primary antibodies at 1:1000 dilution for 16 hr, and secondary antibodies for 90 min at 1:5000. Images were collected using the LiCoR Odyssey and analysis software version 3.0 (Lincoln, Nebr.).

Akt phosphorylation [4] = test: Immunoblotting of Akt phosphorylation in C2 myoblast whole cell lysates; assay type: cell-based, mouse; conditions: different concentrations of IGF-I, C2 myoblasts
Method: as §3

Akt [5] = test: FOXO1-clover reporter live-cell imaging in C2 myoblasts; assay type: cell-based, mouse; conditions: different concentrations of R3-IGF-I, 60 min
Method: C3H10T1/2 mouse embryonic fibroblasts (ATCC #CCL226) were incubated in DMEM supplemented with 10% FBS. Mouse C2 myoblasts (Yaffe and Saxel, 1977) were grown in DMEM supplemented with 10% FBS and 10% newborn calf serum. Cells were transduced at 50% of confluent density with concentrated virus in the presence of 6 μg/ml polybrene, as described (Mukherjee A et al, Mol Cell Biol 30, 1018-1027 (2010); incorporated by reference herein). Cells were then selected by incubation with puromycin (2 μg/ml) for one week. Surviving cells were sorted by fluorescence intensity using a Becton-Dickinson Influx cell sorter at the OHSU Flow Cytometry Core Facility. Reporter expression was stable for at least 10 passages in each sorted cell population.
10T1/2 cells and C2 myoblasts were incubated in serum-free medium for 90 min. R3-IGF-I was added in supplemented FluoroBrite [0 to 500 pM], and cells were imaged every 2-min for 60 min.

Chain of IGF-I receptor (P08069 31-736 limits assumed, species assumed): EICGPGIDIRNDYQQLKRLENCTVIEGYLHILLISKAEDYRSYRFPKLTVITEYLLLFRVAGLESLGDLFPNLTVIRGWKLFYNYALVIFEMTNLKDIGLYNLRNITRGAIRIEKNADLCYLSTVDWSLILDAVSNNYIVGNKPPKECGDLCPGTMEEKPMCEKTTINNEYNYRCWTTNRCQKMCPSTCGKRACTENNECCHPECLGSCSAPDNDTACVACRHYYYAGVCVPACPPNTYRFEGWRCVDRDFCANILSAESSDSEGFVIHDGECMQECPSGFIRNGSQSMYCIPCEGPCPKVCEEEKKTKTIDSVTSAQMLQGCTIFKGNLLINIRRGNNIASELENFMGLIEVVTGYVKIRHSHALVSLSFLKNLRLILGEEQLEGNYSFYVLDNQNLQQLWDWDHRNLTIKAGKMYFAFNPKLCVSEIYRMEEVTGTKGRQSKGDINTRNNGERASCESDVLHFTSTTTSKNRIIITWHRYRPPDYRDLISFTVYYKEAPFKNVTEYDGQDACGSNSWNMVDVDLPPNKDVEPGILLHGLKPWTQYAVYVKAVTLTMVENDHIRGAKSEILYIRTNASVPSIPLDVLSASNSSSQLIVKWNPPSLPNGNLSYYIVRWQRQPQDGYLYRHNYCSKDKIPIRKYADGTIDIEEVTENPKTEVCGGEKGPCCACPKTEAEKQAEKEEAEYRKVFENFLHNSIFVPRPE
Chain of IGF-I receptor (P08069 741-1367 partner limits assumed, species assumed): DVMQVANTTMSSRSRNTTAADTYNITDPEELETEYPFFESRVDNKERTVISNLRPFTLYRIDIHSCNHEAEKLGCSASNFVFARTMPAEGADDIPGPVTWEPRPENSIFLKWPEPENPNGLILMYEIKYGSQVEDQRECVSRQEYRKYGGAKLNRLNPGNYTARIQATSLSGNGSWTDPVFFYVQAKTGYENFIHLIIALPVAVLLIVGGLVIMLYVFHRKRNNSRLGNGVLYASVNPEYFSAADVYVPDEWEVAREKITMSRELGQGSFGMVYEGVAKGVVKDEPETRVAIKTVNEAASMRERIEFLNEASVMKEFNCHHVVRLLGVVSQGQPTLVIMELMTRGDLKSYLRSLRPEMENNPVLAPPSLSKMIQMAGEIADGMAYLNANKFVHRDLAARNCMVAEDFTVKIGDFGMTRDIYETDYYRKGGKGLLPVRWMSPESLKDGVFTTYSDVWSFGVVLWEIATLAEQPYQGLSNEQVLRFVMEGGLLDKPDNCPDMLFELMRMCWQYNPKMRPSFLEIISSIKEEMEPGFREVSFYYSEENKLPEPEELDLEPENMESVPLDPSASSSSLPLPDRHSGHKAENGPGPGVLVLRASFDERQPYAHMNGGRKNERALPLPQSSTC

insulin: recombinant human insulin (Tocris Bioscience)
affinity for IGF-I receptor relative to insulin receptor (fold less) (IGF-I receptor): ~1000 fold
change of nuclear levels of the reporter on growth factor addition (result in words) (Akt [1]): rapid, dose-dependent, and sustained decrease in nuclear levels of FoxO1-clover
time to half-maximal translocation/accumulation of reporter in the cytoplasm after onset of incubation (Akt [1]): 8 to 15 min
time to maximal translocation values (Akt [1]): ~20 min
signaling response in HeLa FoxO1-clover cells (result in words) (Akt [2]): sustained signaling effects
time at which phosphorylation of Akt and PRAS40 was detected (Akt phosphorylation [3]; insulin 1400 pM): ≤ 5 min
time course of Akt and PRAS40 phosphorylation (result in words) (Akt phosphorylation [3]; insulin 1400 pM, EGF 4.2 nM, PDGF-AA 1400 pM, PDGF-BB 104 pM, up to 90 min): rapid and sustained

R3-IGF-I: growth factor purchased from GroPep; binds minimally to IGF binding proteins; activates Akt
extent of Akt phosphorylation (immunoblot) (Akt phosphorylation [4]): dose-dependent increase in the extent of Akt phosphorylation
reporter response in C2 myoblasts compared with 10T1/2 cells (Akt [5]): marked increase in sensitivity to IGF-I
response to IGF-I after prior EGF (Akt [1]; EGF 4.2 nM for 60 min, then IGF-I 500 pM): rapid, extensive, and sustained signaling response
change of nuclear levels of the reporter on growth factor addition (result in words) (Akt [1]): rapid and dose-dependent reduction in nuclear levels of the reporter
time to half-maximal translocation/accumulation of reporter in the cytoplasm after onset of incubation (Akt [1]): 8 to 10 min
time to maximal translocation values (Akt [1]): 14 to 16 min
response to a second treatment with the same growth factor (Akt [1]; sequential exposures, IGF-I 50 or 500 pM with 90-min washout, EGF 4.2 nM after 60 min EGF): qualitatively similar population responses to each dose
subcellular localization of FOXO1-clover (result in words) (Akt [1]; serum-starved cells, 60 min, 10% FBS, PDGF-BB 206 pM, R3-IGF-I 1 nM, BMP-2 15 nM): rapid and sustained translocation of the reporter from the nucleus to the cytoplasm
signaling response in HeLa FoxO1-clover cells (result in words) (Akt [2]): sustained signaling effects
Akt phosphorylation (pAkt T308 immunoblot) (Akt phosphorylation [3]; 60 min, 10% FBS, PDGF-BB 206 pM, R3-IGF-I 1 nM, BMP-2 15 nM): stimulation of Akt phosphorylation
extent of Akt phosphorylation (immunoblot) (Akt phosphorylation [3]; different concentrations of IGF-I, 10T1/2 cells): dose-dependent increase in the extent of Akt phosphorylation
